# In ChEMBL document CHEMBL3044848, “Antiangiogenic and growth inhibitory effects of synthetic novel 1, 5-diphenyl-1,4 pentadiene-3-one-3-yl-ethanone pyridine curcumin analogues on Ehrlich ascites tumor in vivo” (Med Chem Res, 2008):
# Calls of active or inactive are those of the source. No cut-off for these calls is given here.
# What was measured:
# [1] = Antitumor activity against Mus musculus (mouse) EAT cells xenografted in Mus musculus Swiss albino (mouse)assessed as increase in life span at 100 mg/kg, ip administered on days 7,9 and 11 post tumor-injection measured on day 12 relative to control; assay type: functional; conditions: route intraperitoneal
# Chorioallantoic membrane = assay: Antiangiogenesis activity against fertilized Gallus gallus (chicken) egg chorioallantoic membrane assessed as inhibition of neovascularization at 0.1 mM administered to 11 day old embryo measured on day 13 by microscopic analysis; assay type: functional, tissue-based
# EAT [2] = assay: Antiangiogeneic activity against Mus musculus (mouse) EAT cells xenografted in Mus musculus Swiss albino (mouse) assessed as decrease in peritoneal microvessel density per high power field at 100 mg/kg, ip administered on days 7,9 and 11 measured on day 12 by H and E staining-based microscopic analysis; assay type: functional, organism-based; parameters: dose 100 mg/kg
# EAT [3] = assay: Antitumor activity against EAT cells xenografted in Mus musculus (mouse) assessed as condensed nuclei at 100 mg/kg, ip administered on days 7,9 and 11 post tumor-injection measured on day 12 by acridine orange:ethidium bromide staining; assay type: functional, organism-based; parameters: dose 100 mg/kg
# EAT [4] = assay: Antitumor activity against EAT cells xenografted in Mus musculus Swiss albino (mouse) assessed as apoptotic bodies at 100 mg/kg, ip administered on days 7,9 and 11 post tumor-injection measured on day 12 by Geimsa staining; assay type: functional, organism-based; parameters: dose 100 mg/kg
# EAT [5] = assay: Antitumor activity against Mus musculus (mouse) EAT cells xenografted in Mus musculus Swiss albino (mouse) assessed as decrease in cell number at 100 mg/kg, ip administered on days 7,9 and 11 post tumor-injection measured on day 12 relative to control; assay type: functional, organism-based; parameters: dose 100 mg/kg
# EAT [6] = assay: Antitumor activity against Mus musculus (mouse) EAT cells xenografted in Mus musculus Swiss albino (mouse) assessed as decrease in ascites volume at 100 mg/kg, ip administered on days 7,9 and 11 post tumor-injection measured on day 12 relative to control; assay type: functional, organism-based; parameters: dose 100 mg/kg
# Mus musculus [7] = assay: Toxicity against Mus musculus Swiss albino (mouse) assessed as mortality at 100 mg/kg, ip; assay type: organism-based; parameters: dose 100 mg/kg, route intraperitoneal; conditions: in vivo
# Mus musculus [8] = assay: Toxicity against Mus musculus Swiss albino (mouse) assessed as weight loss at 100 mg/kg, ip; assay type: organism-based; parameters: dose 100 mg/kg, route intraperitoneal; conditions: in vivo
# [9] = Antitumor activity against Mus musculus (mouse) EAT cells xenografted in Mus musculus Swiss albino (mouse) assessed as change in body weight at 100 mg/kg, ip administered on days 7,9 and 11 post tumor-injection measured on day 12 (reference value: 10.44 +/- 0.147); assay type: functional; conditions: route intraperitoneal
Compound,Activity [1],inhibition (Chorioallantoic membrane),Activity (EAT [2]),Activity (EAT [3]),Activity (EAT [4]),Activity (EAT [5]),Activity (EAT [6]),Activity (Mus musculus [7]),Activity (Mus musculus [8]),Activity [9]
O=C(/C=C/c1ccc(OCC(=O)c2cccnc2)cc1)/C=C/c1ccc(OCC(=O)c2cccnc2)cc1,66.6%,Active,Active,Active,Active,Active,Active,Non-toxic,Non-toxic,-4.96 g
COc1cc(/C=C/C(=O)/C=C/c2ccc(OCC(=O)c3cccnc3)c(OC)c2)ccc1OCC(=O)c1cccnc1,88.8%,Active,Active,Active,Active,Active,Active,Non-toxic,Non-toxic,-5.07 g
